Reference: patent US8969408B2, “Use of lignan-type compounds or extract of nutmeg or aril of nutmeg comprising the same” (Biocare Co., Ltd., priority 2007, dated 2015)

What was measured:
Assay type in all cases: cell-based
Melan-a cells = experiment: Melanin production inhibition activity in Melan-a cells
Description: Specifically, Melan-a cells were placed on a 6-well plate (melanin quantitated) at a concentration of 2×10^5 cells/mL (final volume=3 mL) and cultured in a 10% CO2 incubator (MCO-20AIC, Sanyo) at 37° C., using RPMI 1640 containing 10% FBS and 2 μM TPA (phorbol-12-myristate 13-acetate), for 24 hours. After removing the culture medium, the nutmeg ethanol extract prepared in Example 1-1 was added to RPMI 1640 medium and treated every day for 3 days. 5 days later, the culture medium was removed from the 6-well plate and, after treating with 0.25% trypsin-EDTA solution (Sigma Chemical Co.), cell pellets were collected and transferred to a 1.5 mL tube. After centrifuging at 10,000 rpm for 10 minutes, the supernatant was removed. Thus obtained pellets were dried at 60° C. and added to 100 μL of 1N NaOH in order to dissolve melanin contained in the cells. The solution was diluted with PBS and absorbance was measured at 475 nm using an ELISA reader. Melanin content was calculated according to the following Equation 1. The group to which the nutmeg ethanol extract was not used served as the control group. [formula] […] Melan-a cells were treated with the […] isolated in Example 2-1, and the degree of melanin production was measured in the same manner as Test Example 1-1.

tyrosinase [1] = target: T1, tyrosinase (Mus musculus, UniProt P11344); experiment: Tyrosinase inhibition activity (DOPA chrome production) in treated Melan-a cells
T1 construct: endogenous in cells; host or cells: Melan-a cells (melanocytes)
T1 sequence (P11344 19-533): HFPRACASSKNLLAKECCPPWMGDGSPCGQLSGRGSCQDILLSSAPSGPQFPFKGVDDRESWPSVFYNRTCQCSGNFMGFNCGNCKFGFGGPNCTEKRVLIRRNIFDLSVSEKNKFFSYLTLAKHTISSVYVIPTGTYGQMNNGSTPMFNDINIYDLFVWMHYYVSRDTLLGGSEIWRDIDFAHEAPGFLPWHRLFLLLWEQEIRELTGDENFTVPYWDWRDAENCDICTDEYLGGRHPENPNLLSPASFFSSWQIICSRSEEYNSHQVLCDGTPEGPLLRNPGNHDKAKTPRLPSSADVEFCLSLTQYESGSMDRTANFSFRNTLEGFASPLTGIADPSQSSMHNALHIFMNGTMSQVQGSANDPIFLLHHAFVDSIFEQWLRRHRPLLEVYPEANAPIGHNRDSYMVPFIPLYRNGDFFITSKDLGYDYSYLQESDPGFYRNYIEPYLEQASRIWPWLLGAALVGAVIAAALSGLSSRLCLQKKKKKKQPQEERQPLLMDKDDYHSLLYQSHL
Description: 5 days later, the culture medium was removed from the 6-well plate and, after treating with 0.25% trypsin-EDTA solution (Sigma Chemical Co.), cell pellets were collected and transferred to a 1.5 mL tube. After adding 200 μL of phosphate buffer (pH 6.8) followed by centrifuging at 10,000 rpm for 10 minutes, the supernatant was collected. 150 μL of the supernatant was moved to a 96-well microplate and 50 μL of catechol was added. After culturing at 37° C. for 30 minutes, the amount of produced DOPA chrome was determined by measuring absorbance at 490 nm using a microplate reader.

tyrosinase [2] = experiment: Inhibition of expression of tyrosinase (Western blotting), Melan-a cells; details: result in words
Description: (§1) Western blotting and Bradford protein assay were carried out in order to investigate if the nutmeg ethanol extract prepared in Example 1-1 inhibits the expression of tyrosinase, tyrosinase-related protein 1 (TRP-1) and tyrosinase-related proteins 2 (TRP-2).
(§2) Specifically, proteins were extracted from the cells treated in Test Example 1-1 with the nutmeg ethanol extract and subjected to electrophoresis in 10% SDS-polyacrylamide gel. Then, the proteins were transferred from the gel to a nitrocellulose membrane. After treating with 5% skim milk at room temperature for 1 hour, primary antibodies of tyrosinase, TRP-1 and TRP-2 diluted in 5% skim milk to 1:1000 were added and allowed to be incubated at room temperature for 2 hours. After the incubation, the membrane was washed with Tris-buffer saline Tween 20(TBST) twice, for 10 minutes per each, while shaking. Secondary antibodies which recognize the primary antibodies, diluted in 5% skim milk to 1:1000, were added and allowed to be incubated at room temperature for 1 hour. As for the primary antibodies, the membrane was washed with TBST three times, for 10 minutes per each, while shaking, and subjected to development by chemiluminescence.
(§3) Melan-a cells were treated with the macelignan isolated in Example 2-1, and it was investigated if the expression of tyrosinase, TRP-1 and TRP-2 was inhibited, in the same manner as Test Example 3-1.

[3] = tested on: tyrosinase-related protein 1 (TRP-1); experiment: Inhibition of expression of TRP-1 (Western blotting), Melan-a cells; details: result in words
Description: as §1, §2, §3

[4] = tested on: tyrosinase-related proteins 2 (TRP-2); experiment: Inhibition of expression of TRP-2 (Western blotting), Melan-a cells; details: result in words
Description: as §1, §2, §3

Compound	melanin production inhibition activity (FIG. 1, FIG. 2) (Melan-a cells; result in words, P<0.01)	DOPA chrome production / tyrosinase activity (FIG. 3, FIG. 4) (tyrosinase [1]; result in words, P<0.01)	expression of tyrosinase (FIG. 5, FIG. 6) (tyrosinase [2])	expression of TRP-1 (FIG. 5, FIG. 6) [3]	expression of TRP-2 (FIG. 5, FIG. 6) [4]	inhibition at 50 µM (Melan-a cells; 50 μM) [%]	DOPA chrome production inhibition (tyrosinase [1]; concentration not given)
COc1cc(C[C@H](C)[C@H](C)Cc2ccc3c(c2)OCO3)ccc1O [macelignan, 4-((2S,3R)-4-benzo[1,3]dioxol-5-yl-2,3-dimethyl-butyl)-2-methoxyphenol]	superior melanin production inhibition activity	superior DOPA chrome production inhibition activity	could inhibit the expression	could inhibit the expression	could inhibit the expression	–	–
C/C=C/c1cc(OC)c2c(c1)[C@@H](C)[C@H](c1ccc3c(c1)OCO3)O2 [licarin E, 5-(7-methoxy-3-methyl-5-propenyl-2,3-dihydro-benzofuran-2-yl)-benzo[1,3]dioxole]	–	–	–	–	–	~58.4	about 60.04%
